Where two headings read alike, the source gives them in different places.
Experiments:
[1] = Plasma pharmacokinetics after single subcutaneous dose in non-human primates (DcNP or free drug combination); details: for half-life: monkey, sc
Method: To evaluate whether presenting the three drugs—e.g., DTG-3TC-TFV, LPV-RTV-TFV, EFV-LPV-TFV, ATZ-RTV-TFV or 4 drugs—e.g., LPV-RTV-3TC-TFV in a combination nanosuspension using DcNP platform could provide long-acting plasma and intracellular drug exposure, macaques were subcutaneously administered with either DcNP formulated or soluble free drug combination. The free-drug combination (control) arm consisted of two groups. In the control group, 2-4 macaques were administered at an indicated single subcutaneous dose where equivalent dug combinations are dissolved in DMSO and diluted with water.
Whole blood in EDTA tubes was immediately centrifuged and plasma was removed and frozen at −80° C. until LC-MS/MS analysis.
Plasma drug concentrations were reported in units of nM. Non-compartmental parameters were estimated from plasma profiles for free and DcNP formulations using Phoenix WinNonlin (Certara, Princeton, N.J.). The following non-compartmental parameters were estimated: area under the plasma concentration-time curve (AUC) extrapolated to infinity; terminal half-life (t1/2); apparent clearance (CL/F); and mean body residence time (MBRT) based on moments extrapolated to infinity.

[2] = cited from earlier work
HIV-1 = details: read-out: therapeutically effective plasma concentration (EC50); cited from earlier work
[3] = cited from earlier work; remark: listed apart in the source
[4] = cited from earlier work; remark: listed apart in the source

Compound	Oral single dose formulation (plasma half-life, hours) ([2]; oral) [h]	EC50 (HIV-1) [nM]	Water solubility [4] [µg/mL]	log P [3]	other results
C[C@@H]1CCO[C@H]2Cn3cc(C(=O)NCc4ccc(F)cc4F)c(=O)c(O)c3C(=O)N12 [Dolutegravir]	23	0.02 to 2.14	< 95		half-life ([1]; plasma): > 400 h; log P ([3]; listed as DTG): > 2
O=C1Nc2ccc(Cl)cc2[C@@](C#CC2CC2)(C(F)(F)F)O1 [Efavirenz]			0.00855	4	
Cc1cccc(C)c1OCC(=O)N[C@@H](Cc1ccccc1)[C@@H](O)C[C@H](Cc1ccccc1)NC(=O)[C@H](C(C)C)N1CCCNC1=O [Lopinavir, (2S)—N-[(2S,4S,5S)-5-[[2-(2,6-dimethylphenoxy)acetyl]amino]-4-hydroxy-1,6-diphenylhexan-2-yl]-3-methyl-2-(2-oxo-1,3-diazinan-1-yl)butanamide]		10 to 27			half-life ([1]; in vivo): 250 to 350 h; Oral single dose formulation (plasma half-life, hours) ([2]; in vivo, po): 2.5 h
Cc1cc(/C=C/C#N)cc(C)c1Nc1ccnc(Nc2ccc(C#N)cc2)n1 [Rilpivirine, 4-[[4-[4-[(E)-2-cyanoethenyl]-2,6-dimethylanilino]pyrimidin-2-yl]amino]benzonitrile]		0.7 to 1.1		4.5	
CC(C)c1nc(CN(C)C(=O)N[C@H](C(=O)N[C@@H](Cc2ccccc2)C[C@H](O)[C@H](Cc2ccccc2)NC(=O)OCc2cncs2)C(C)C)cs1 [Ritonavir, 1,3-thiazol-5-ylmethyl N-[(2S,3S,5S)-3-hydroxy-5-[[(2S)-3-methyl-2-[[methyl-[(2-propan-2-yl-1,3-thiazol-4-yl)methyl]carbamoyl]amino]butanoyl]amino]-1,6-diphenylhexan-2-yl]carbamate]	2.5	3.8 to 153			half-life ([1]; plasma): 250 to 350 h
C[C@H](Cn1cnc2c(N)ncnc21)OCP(=O)(O)O [Tenofovir, [(2˜{R})-1-(6-aminopurin-9-yl)propan-2-yl]oxymethylphosphonic acid]		40 to 8500	13000	−1.6	
[(2˜{R})-1-(6-aminopurin-9-yl)propan-2-yl]oxymethylphosphonic acid [Tenofovir]	8 to 17				DcNP formulation (non-human primates) (plasma half-life, hours) ([1]; DcNP formulation, non-human primates): >200 to 350 h
